In article PMC4385452 (Bioorganic & medicinal chemistry letters, 2015):

Assays:
[1] = tested on: dopamine transporter (DAT); settings: at the highest concentration tested; cited from earlier work
[2] = biological target: T1, human CHT (Homo sapiens, UniProt Q9GZV3, L531A/V532A); type: cell-based
T1 sequence (Q9GZV3 1-580 L531A/V532A): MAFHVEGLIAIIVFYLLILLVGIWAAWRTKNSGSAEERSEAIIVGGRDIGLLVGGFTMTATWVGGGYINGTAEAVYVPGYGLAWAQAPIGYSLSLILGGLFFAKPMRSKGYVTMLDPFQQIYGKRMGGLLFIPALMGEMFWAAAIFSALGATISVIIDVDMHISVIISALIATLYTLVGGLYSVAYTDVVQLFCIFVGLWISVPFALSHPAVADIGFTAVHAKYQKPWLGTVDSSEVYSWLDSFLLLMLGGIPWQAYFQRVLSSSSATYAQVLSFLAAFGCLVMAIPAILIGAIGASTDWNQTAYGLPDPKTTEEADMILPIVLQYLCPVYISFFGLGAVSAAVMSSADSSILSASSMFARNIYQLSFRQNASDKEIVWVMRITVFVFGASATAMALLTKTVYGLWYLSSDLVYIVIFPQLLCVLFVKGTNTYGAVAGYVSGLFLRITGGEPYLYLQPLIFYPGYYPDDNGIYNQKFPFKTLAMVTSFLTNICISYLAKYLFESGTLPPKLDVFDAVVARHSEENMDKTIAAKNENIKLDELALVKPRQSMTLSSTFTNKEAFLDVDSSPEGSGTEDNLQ

[3] = intrinsic clearance in liver microsomes; settings: mouse
[4] = cassette tissue distribution study in mice; type: in vivo, mouse; settings: 1.0 mg/kg per compound intraperitoneal cassette dose, n = 3

SMILES	CHT inhibitory activity [2]	CLint scaled [3] [mL/min/kg]	other results
COc1ccc(C(=O)NCc2cc(C(C)C)no2)cc1OC1CCN(C)CC1 [Compound 10m, N-((3-isopropylisoxazol-5-yl)methyl)-4-methoxy-3-((1-methylpiperidin-4-yl)oxy)benzamide]	equipotent with the isopropyl analog	43.7	DAT inhibitory activity [1]: did not show any inhibitory activity
COc1ccc(C(=O)NCc2csc(C)n2)cc1OC1CCN(C(C)C)CC1 [Compound 10b]	–	979	–
COc1ccc(C(=O)NCc2cc(C(C)C)no2)cc1OCCN1CCCCC1 [Compound 10q]	–	167	–
COc1ccc(C(=O)NCc2ccc(C)s2)cc1OC1CCN(C(C)C)CC1 [Compound 10c]	–	–	activity at the high choline concentration ([2]; high (10 μM) choline): modest inhibitory activity; activity at the low choline concentration ([2]; low (100 nM) choline): inactive
COc1ccc(C(=O)NCc2cc(C(C)C)no2)cc1OC1CCCN(C)C1 (stereo not drawn) [Compound 10n]	tolerated, but less active	–	–
COc1ccc(C(=O)NCc2cc(C(C)C)no2)cc1OC1CCCC1 [Compound 10p]	inactive	–	–
COc1ccc(C(=O)NCc2cc(C(C)C)no2)cc1OCCN1CCOCC1 [Compound 10r]	–	–	fold less active than the piperidine analog ([2]; morpholine 10r versus piperidine 10q): ~ 10 fold
COc1ccc(C(=O)NCc2cc(C(C)C)no2)cc1OC1CCNCC1 [Compound 10l]	much less active	–	–
COc1ccc(C(=O)NCc2cc(C(C)C)no2)cc1O [Compound 10v]	inactive	–	–
COc1ccc(C(=O)NCc2cc(C(C)C)no2)cc1OC1CCN(C(C)C)CC1 [Compound 10e]	–	781	Brain concentration [4]: BLQ
COc1ccc(C(=O)NC(C)Cc2ccccn2)cc1OC1CCN(C(C)C)CC1 (stereo not drawn) [Compound 10k]	–	106	–
CCn1nc(C)c(CNC(=O)c2ccc(OC)c(OC3CCN(C(C)C)CC3)c2)c1C [Compound 10f]	–	29.9	Brain concentration [4]: BLQ
COc1ccc(C(=O)NCc2cc(C(C)C)no2)cc1OC1CCCCC1 [Compound 10o]	inactive	–	–
